How the values were obtained:
[1] = tested on: cells expressing TM4SF5; test: Activation of glycolytic function (acidification of extracellular solution, Seahorse); format: cell-based
Procedure: The cells expressing TM4SF5 were treated with vehicle, a negative control compound (4′-methoxy-4-dihydroxychalcone) or TSAHC. Then, the degree of activation of glycolytic function was measured by measuring the acidification of the extracellular solution due to glycolysis while additionally adding glucose at various concentrations using Seahorse equipment.

[2] = tested on: cell lines expressing TM4SF5; test: qRT-PCR of M1-type macrophage chemokines/cytokines CCL2, TNF-α, IL-6, IL-1β; format: cell-based; conditions: cell line expressing TM4SF5, LPS and IFN-γ
Procedure: Cell lines not expressing TM4SF5 (EV) or cell lines expressing thereof (TM4SF5) were treated (+) or not treated with LPS and IFN-γ, treated (+) or not treated with 2-DG (2-Deoxy-D-glucose) as a drug for inhibiting glycolysis at a given concentration, and additionally treated (+) or not treated with TSAHC (−). Then, the mRNA expression levels of CCL2, TNF-α, IL-6, and IL-1β, the chemokines/cytokines indicating the activation of M1-type macrophages, were confirmed by qRT-PCR.

[3] = tested on: M1 and M2 type macrophages differentiated from THP-1 cells; test: qRT-PCR of M1 or M2 type macrophage markers in macrophages differentiated from THP-1 cells; format: cell-based, human; conditions: 100 nM for 24 hours; for mRNA levels of M1 type macrophage markers (TNFα, IL1β, IL6) compared to the control group: M1 type macrophages, FIG. 12A
Procedure: M1 and M2 type macrophages (MΦ) differentiated from THP-1 cells were treated with CCL20 or CXCL10 at a concentration of 100 nM for 24 hours, and then the mRNA expression levels of the markers indicating the activity as M1 or M2 type macrophages were confirmed by qRT-PCR. For M1 type macrophages, the mRNA expression levels of TNFα, IL1β and IL6 were measured, and for M2 type macrophages, the mRNA expression levels of CD206 and FN1 were measured.

[4] = tested on: M0 THP-1 cells expressing TM4SF5; test: Glycolytic Proton Efflux Rate (GlycoPER) in M0 THP-1 cells treated with CCL20 or CXCL10; format: cell-based, human; conditions: 300 ng/ml for 24 hours, FIG. 9
Procedure: THP-1 cells infected with a lentivirus with an empty vector not expressing TM4SF5 or a lentivirus expressing TM4SF5 were treated with 100 nM phorbol-12-myristate-13-acetate (PMA) for 24 hours to differentiate into M0 cells (experimental condition to confirm the not repetitive effects of cytokines/chemokines in the early stage by representing the case before differentiation into M1 type), and then, 300 ng/ml of CCL20 or CXCL10 was treated for 24 hours, and basal and compensatory Glycolytic Proton Efflux Rate (GlycoPER) were measured using a Seahorse XFp device.

[5] = tested on: Ccl20; test: CCl4-induced liver damage, inflammation and fibrosis with suppression of Ccl20 expression by siRNA; format: in vivo, mouse
Procedure: 12-week-old normal WT or Tm4sf5^−/− KO mice (5 per group) were intraperitoneally injected with CCl4 (TRC, Canada, C176905, 10 mg/kg/40% olive oil) twice a week for 4 weeks. Ccl20 siRNA [sense 5′-GGAGGAAAUGAUCACAGCUtt-3′ (SEQ. ID. NO: 101), antisense 5′-AGCUGUGAUCAUUUCCUCCtt-3 (SEQ. ID. NO: 102) was purchased from Ambion (Austin Texas, USA) and diluted to an appropriate concentration in PBS. Ccl20 siRNA (1.66 mg/kg) or vehicle was intravenously injected into the mice twice a week. After 4 weeks, liver and blood samples of the animals were obtained.
As shown in the scheme of FIG. 5, 12-week-old normal C57BL/6 mice were intraperitoneally injected with CCl4 (40% in olive oil) at a concentration of 10 mg/kg body weight twice a week for 26 days. At the same time, siRNA against CCL20 (Amibon, Austin Texas, USA, Assay ID 72932, sense 5′-GGAGGAAAUGAUCACAGCUtt-3′, antisense 5′-AGCUGUGAUCAUUUCCUCCtt-3′) dissolved in PBS at a concentration of 1.66 mg/kg was intravenously injected for 26 days before the CCl4 injection. After 26 days of the injection, the mice were sacrificed, and the liver tissue was obtained. Then, the disease state of the liver was investigated by performing immunohistochemistry (IHC), Masson's trichrome staining and qRT-PCR.
Specifically, for H&E staining, the tissue was placed in a 60° C. oven for about 20 minutes to separate the tissue from paraffin, and when the paraffin melted, the tissue was immersed in xylene three times for 5 minutes each. The tissue was put into 100%→90%→80%→70% ethanol→distilled water for 3 minutes each in the order, and then immersed in a hematoxylin solution for 5 minutes to react. After sufficiently washing the tissue with tap water, it was reacted with an eosin solution for about 20 minutes, and washed again with tap water. Then, the tissue was immersed in 70%→80%→90%→100% ethanol→xylene for 3 minutes each in the order for dehydration, followed by mounting on a slide.
Paraffin blocks and liver tissue sections for immunohistochemical staining were obtained from Abion Inc. (Seoul, Korea). As antibodies, F4/80 (Cell Signaling Technology), Ccl20, laminin γ2 (Santa Cruz Biotechnology) were used.
For Masson's trichrome staining, the tissue was first separated from paraffin and then reacted in a preheated bouin's solution for 1 hour. After rinsing the tissue with tap water until the solution was completely drained, it was reacted in a hematoxylin solution for 10 minutes, and then rinsed again with tap water. Then, the tissue was reacted in a biebrich scarlet-acid fuchsin solution for 5 minutes, immersed in distilled water, and reacted in a phosphotungstic/phosphomolybdic acid solution for 15 minutes. The tissue was immersed in an Aniline blue solution for 10 minutes and 1% acetic acid for 1 minute for dehydration. The tissue was immersed in xylene, followed by mounting on a slide.

4′-methoxy-4-dihydroxychalcone [control compound, reference compound]
glycolysis of the cells not expressing TM4SF5 (EV) ([1]; EV cell line, FIG. 8B): not changed | glycolytic function of cells expressing TM4SF5 ([1]; various concentrations of glucose added, FIG. 8C): not changed

O=CC[C@@H](O)[C@H](O)[C@H](O)CO [2-DG, 2-Deoxy-D-glucose, reference compound]
CCL2 mRNA expression level ([2]; FIG. 11A): decreased | TNF-α mRNA expression level ([2]; FIG. 11B): decreased | IL-6 mRNA expression level ([2]; FIG. 11C): decreased | IL-1β mRNA expression level ([2]; FIG. 11D): decreased

CCL20: chemokine used to treat THP-1-derived macrophages
mRNA levels of M1 type macrophage markers (TNFα, IL1β, IL6) compared to the control group [3]: decreased | mRNA levels of M2 type macrophage markers (CD206, FN1) ([3]; M2 type macrophages, CCL20 alone or together with CXCL10, FIG. 12B): significantly increased | glycolytic function (basal and compensatory GlycoPER) versus vehicle-treated control group [4]: higher

CXCL10: chemokine used to treat THP-1-derived macrophages
mRNA levels of M1 type macrophage markers (TNFα, IL1β, IL6) compared to the control group [3]: decreased | glycolytic function (basal and compensatory GlycoPER) versus vehicle-treated control group [4]: higher

Ccl20 siRNA: siRNA against CCL20 (Ambion), sense 5′-GGAGGAAAUGAUCACAGCUtt-3′, antisense 5′-AGCUGUGAUCAUUUCCUCCtt-3′ (sense GGAGGAAAUGAUCACAGCUTT; antisense AGCUGUGAUCAUUUCCUCCTT; chemistry not given here)
collagen type 1 α1 chain (Col1α1) mRNA level in liver ([5]; during CCl4 treatment, FIG. 6A): decreased | Ccl20 mRNA level in liver ([5]; during CCl4 treatment, FIG. 6B): decreased | F4/80 mRNA level in liver ([5]; during CCl4 treatment, FIG. 6C): decreased | α-smooth muscle actin (Sma) mRNA level in liver ([5]; during CCl4 treatment, FIG. 6D): decreased | effect of CCl4 treatment (liver tissue damage, collagen accumulation, Ccl20 and Cxcl10 accumulation, F4/80 macrophage infiltration, laminin γ2 accumulation) ([5]; siRNA 1.66 mg/kg intravenously, CCl4 10 mg/kg twice a week, 26 days, FIG. 5): significantly inhibited

— US12064405B2, “Immunosuppressant comprising TSAHC or a pharmaceutically acceptable salts thereof as an active ingredient” (Seoul National University R&DB Foundation, priority 2020, dated 2024)
